These results are taken from publication PMC6820105, “Data on synthesis, ADME and pharmacological properties and early safety pharmacology evaluation of a series of novel NURR1/NOT agonist potentially useful for the treatment of Parkinson's disease” (Data in Brief, 2019).

Usually melting point stands for the temperature, or range, at which the solid turns liquid. One may read the EC50 as the concentration that produces a half-maximal response.

Read-outs that look alike come from different tables or passages of the source. Bounds are passed on as bounds.

In data set [1] the target is NURR1/NOT nuclear receptor (Homo sapiens, UniProt P43354). The experiment in a line: Gal4 reporter gene assay (EC50 / Emax Gal4). Type of data set: cell-based. The settings on record: for Emax Gal4: Table 1.
Data set [2] in a line: Plasma and heart concentrations after 5-min i.v. administration in anesthetized male Hartley guinea pigs. Type of data set: in vivo. The settings on record: iv, guinea pig, 10 mg/kg 5-min i.v. The method, then:
Cpd 38 was dissolved in a 75% PEG400 aqueous solution and administered to guinea pigs (n = 6) at 10 mg/kg as a single 5-min intravenous infusion under a volume of 0.5 mL/kg. Control animals (n = 10) received the vehicle only, under the same experimental conditions.
Blood samples were drawn from a carotid artery at 10 and 30 minutes after the beginning of the drug perfusion and after centrifugation plasma samples were stored frozen until analysis.
At the end of the experiment (around 30 minutes following the beginning of the drug perfusion), the heart was removed and a few grams of tissue were collected from right and left ventricles stored frozen at - 20 °C until analysis.
Analysis of samples was performed using an exploratory LC-MS-MS assay method. Plasma (LOQ of 2 ng/mL) and tissue (LOQ of 10 ng/g) concentrations of Cpd 38 (expressed as active ingredient).were determined.

Data set [3] relates to anesthetized mongrel dogs. Briefly: Hemodynamic, electrocardiographic and electrophysiological effects in anesthetized mongrel dogs. In kind it is in vivo. To be noted: dog, 10 mg/kg single 5-min i.v. infusion, monitored up to 60 min, n = 3. The method, then: Six fasted adult mongrel dogs (weighing 18–26 kg) were anesthetized with 20 mg/kg sodium thiopental i.v. Animals were artificially ventilated with a gaseous mixture composed of O^2/air supplemented with around 1.5% end-tidal fraction of isoflurane. Tidal volume and respiratory rate was set at 20 mL/kg and 16 breaths/min. Arterial blood gas was controlled and respiratory adjusted to maintain pH between 7.36 and 7.44, PaO^2 > 80 mmHg and PaCO^2 < 40 mmHg. Four limbs electrodes were positioned to obtain a surface ECG. Two bipolar electrodes were positioned in the right atrium via a jugular access, one to record the atrial electrogram and the second one to stimulate the atrium. A bipolar electrode and a quadripolar electrode were inserted via venous and arterial femoral access and positioned in the right ventricular apex and in the His bundle region, respectively. These electrodes were connected to a programmable stimulator and to a computerized physiograph system. […]
The auricular diastolic stimulation threshold was evaluated with rectangular current pulse (2 ms duration) increased in steps of 0.1 mA and delivered at fixed rate pacing (S1S1) of 400 or 350 ms in function of animal basal cycle length. […]

The nature of data set [4]: Plasma and heart concentrations after 5-min i.v. administration in anesthetized mongrel dogs. Type of data set: in vivo. The settings on record: iv, dog, 10 mg/kg 5-min i.v. The method, then:
Cpd 38 was dissolved in a 75% PEG400 aqueous solution and administered to dogs (n = 3) at 10 mg/kg as a single 5-min intravenous infusion under a volume of 0.5 mL/kg. Control animals (n = 3) received the vehicle only, under the same experimental conditions.
Blood samples were drawn from a femoral artery at 10 and 60 minutes after the beginning of the drug perfusion and after centrifugation plasma samples were stored frozen at −20 °C until analysis.
At the end of the experiment (around 60 minutes following the beginning of the drug perfusion), the heart was removed and a few grams of tissue were collected from right and left ventricles stored frozen at - 20 °C until analysis.
Analysis of samples was performed using an exploratory LC-MS-MS assay method. Plasma (LOQ of 2 ng/mL) and tissue (LOQ of 3 ng/g) concentrations of Cpd 38 were determined.

For data set [5], the system named is anesthetized male Hartley guinea pigs. The experiment in a line: Hemodynamic and electrocardiographic effects in anesthetized male Hartley guinea pigs. In kind it is in vivo. To be noted: guinea pig, 10 mg/kg single 5-min i.v. infusion, monitored up to 30 min, n = 6. The method, then:
Male Hartley guinea pigs (weighing 400–500 g) were anesthetized with 35 mg/kg sodium pentobarbital i.p. and let under spontaneous breathing conditions. The body temperature was maintained at 37.5 ± 0.5 °C throughout the experiment. For implantation of vascular catheters, cutaneous incision, subcutaneous and muscular dissections were performed after application of local anesthetic (lidocain, 20 mg/kg). A carotid artery and a jugular vein were catheterized to allow recording of arterial blood pressure and intravenous administration of the drug, respectively. The arterial micromanometer catheter was connected to a pressure transducer. For the electrocardiogram recording, five electrodes were inserted in the subcutaneous layer of fore- and hind-limb. The pressure transducer and ECG electrodes were linked to Gould pre-amplifiers. The amplifiers were connected to a Notocord-Hem computerized data acquisition system and recorded at a sampling rate of 1000 Hz. Either lead I or lead II were recorded, depending on which the better separation of T wave from P wave of the next complex was achieved.
Cpd 38 was dissolved in a 75% PEG400 aqueous solution and administered to guinea pigs (n = 6) at 10 mg/kg as a single 5-min intravenous infusion under a volume of 0.5 mL/kg. Control animals (n = 10) received the vehicle only, under the same experimental conditions. […]

The mark [6] stands for this setting: Table 1, replacements of the hydroxymethyl of cpd 4, read-out: EC50 Gal4.
Setting [7] is: heart (right and left ventricles), read-out: Heart concentration.
[8] abbreviates: plasma, mean ± SD, n = 6, read-out: Total plasma concentration.
Where [9] appears, read: plasma, read-out: Total plasma concentration.
[10] abbreviates: plasma, mean ± SD, n = 3, read-out: Total plasma concentration.

Sequence of NURR1/NOT nuclear receptor (P43354 whole entry, the tested form may be a part): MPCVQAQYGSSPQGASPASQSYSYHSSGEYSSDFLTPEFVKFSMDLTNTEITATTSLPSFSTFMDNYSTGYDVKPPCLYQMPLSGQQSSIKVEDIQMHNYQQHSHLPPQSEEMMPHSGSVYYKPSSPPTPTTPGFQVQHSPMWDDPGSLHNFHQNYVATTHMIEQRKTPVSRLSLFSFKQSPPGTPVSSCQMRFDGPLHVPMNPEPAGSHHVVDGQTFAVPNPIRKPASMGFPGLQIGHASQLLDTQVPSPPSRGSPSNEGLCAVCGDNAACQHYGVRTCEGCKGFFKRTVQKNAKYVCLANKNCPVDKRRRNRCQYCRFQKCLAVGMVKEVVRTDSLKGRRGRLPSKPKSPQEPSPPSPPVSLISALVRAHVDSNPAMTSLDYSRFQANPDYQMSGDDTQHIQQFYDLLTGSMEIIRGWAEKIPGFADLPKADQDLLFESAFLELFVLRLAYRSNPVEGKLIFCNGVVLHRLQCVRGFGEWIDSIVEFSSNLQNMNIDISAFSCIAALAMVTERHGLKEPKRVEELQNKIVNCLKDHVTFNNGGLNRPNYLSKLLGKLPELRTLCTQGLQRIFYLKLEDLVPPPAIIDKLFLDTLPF

Regarding `NC(=O)c1cccc(-c2ccc3nc(-c4ccc(Cl)cc4)cn3c2)c1` [Cpd S7, 3-(2-(4-chlorophenyl)imidazo[1,2-a]pyridin-6-yl)benzamide], the melting point is 246 to 248 °C. In data set [1], the “Emax Gal4” value worked out at 210 ± 5. Moreover, the EC50 in data set [1] (setting [6]) came out at 1580 ± 35 nM.

As for `Clc1ccc(-c2cn3cc(-c4cccc(CN5CCCC5)c4)ccc3n2)cc1` [Cpd S4, 1-(3-(2-(4-chlorophenyl)imidazo[1,2-a]pyridin-6-yl)phenyl)-N-pyrolidine], in data set [1] (setting [6]), the EC50 is over 3000 nM.

With `CN(C)Cc1cccc(-c2ccc3nc(-c4ccc(Cl)cc4)cn3c2)c1` [Cpd S3, 1-(3-(2-(4-chlorophenyl)imidazo[1,2-a]pyridin-6-yl)phenyl)-N,N-dimethylmethanamine], the melting point was 290 to 292 °C.

With `CC(O)(CO)c1cccc(-c2ccc3nc(-c4ccc(Cl)cc4)cn3c2)c1` (stereo not drawn) [Cpd 41, 2-(3-(2-(4-chlorophenyl)imidazo[1,2-a]pyridin-6-yl)phenyl)propane-1,2-diol], the melting point is 192 to 194 °C.

Molecule `CNC(=O)c1cccc(-c2ccc3nc(-c4ccc(Cl)cc4)cn3c2)c1` [Cpd S8, 3-(2-(4-chlorophenyl)imidazo[1,2-a]pyridin-6-yl)-N-methylbenzamide] had a melting point of 225 to 227 °C. Further, in data set [1], the “Emax Gal4” value is listed as 226 ± 66. Also, the EC50 in data set [1] (setting [6]) was 87 ± 28 nM.

Turning to `OC1(c2cccc(-c3ccc4nc(-c5ccc(Cl)cc5)cn4c3)c2)CCOCC1` [Cpd 40, 4-(3-(2-(4-chlorophenyl)imidazo[1,2-a]pyridin-6-yl)phenyl)tetrahydro-2H-pyran-4-ol], the melting point lay in the range of 224 to 225 °C.

Turning to `N#Cc1cccc(-c2ccc3nc(-c4ccc(Cl)cc4)cn3c2)c1` [Cpd S10, 3-(2-(4-chlorophenyl)imidazo[1,2-a]pyridin-6-yl)benzonitrile], the melting point fell in the range of 195 to 197 °C.

With `Clc1ccc(-c2cn3cc(-c4cccc(CN5CCOCC5)c4)ccc3n2)cc1` [Cpd S5, 1-(3-(2-(4-chlorophenyl)imidazo[1,2-a]pyridin-6-yl)phenyl)-N-morpholine], the EC50 in data set [1] (setting [6]) was over 3000 nM.

Consider `CC(C)(O)c1cccc(-c2ccc3nc(-c4ccc(Cl)cc4)cn3c2)c1` [Cpd 38, 2-(3-[2-(4-Chlorophenyl)imidazo[1,2-a]pyridin-6-yl]phenyl)propan-2-ol], for which the concentration at 30 min in data set [2] (heart (right and left ventricles), mean ± SD, n = 6, read-out: Heart concentration) was found to be 6010 ± 964 ng/g; in data set [2] (setting [7]), 16.6 µM; in data set [2] (setting [8]), 2570 ± 533 ng/mL; in data set [2] (setting [9]), 7.1 µM. The concentration at 10 min is 4660 ± 1350 ng/mL in data set [2] (setting [8]), 12.8 µM in data set [2] (setting [9]), 23400 ± 2830 ng/mL in data set [4] (setting [10]) and 64.5 µM in data set [4] (setting [9]). Also, the “Hemodynamic, ECG and electrophysiological effects” value in data set [3] is “No major hemodynamic, ECG and electrophysiological effects were observed”. Further, the concentration at 60 min in data set [4] (heart (right and left ventricles), mean ± SD, n = 3, read-out: Heart concentration) was found to be 14600 ± 2700 ng/g; in data set [4] (setting [7]), 40.2 µM; in data set [4] (setting [10]), 10100 ± 769 ng/mL; in data set [4] (setting [9]) it was 27.8 µM. Moreover, the “Hemodynamic and ECG effects” value in data set [5] was “No major hemodynamic and ECG effects were observed”.

The molecule `Cc1cccc(-c2ccc3nc(-c4ccc(Cl)cc4)cn3c2)c1` [Cpd S1, 2-(4-Chlorophenyl)-6-(m-tolyl)imidazo[1,2-a]pyridine] registered a melting point of 145 to 147 °C.

The molecule `CCN(CC)C(=O)c1cccc(-c2ccc3nc(-c4ccc(Cl)cc4)cn3c2)c1` [Cpd S9, 3-(2-(4-chlorophenyl)imidazo[1,2-a]pyridin-6-yl)-N,N-diethylbenzamide] gave a melting point of 162 to 164 °C.

`COCc1cccc(-c2ccc3nc(-c4ccc(Cl)cc4)cn3c2)c1` [Cpd S2, 2-(4-Chlorophenyl)-6-(3-(methoxymethyl)phenyl)imidazo[1,2-a]pyridine] showed a melting point of 135 to 137 °C.

As to `CC(C)CC(O)c1cccc(-c2ccc3nc(-c4ccc(Cl)cc4)cn3c2)c1` (stereo not drawn) [Cpd S15, 1-(3-(2-(4-chlorophenyl)imidazo[1,2-a]pyridin-6-yl)phenyl)-3-methylbutan-1-ol], the EC50 in data set [1] (Table 2, alkyl or aryl groups on the carbinol, read-out: EC50 Gal4 t) is over 3000 nM.
